We go through 1 substance from US20250011404A1, “TARGETING APOE ENHANCES T-CELL KILLING IN CANCER IMMUNOTHERAPY” (Children's National Medical Center, priority 2021, published 2025).

The assay has as its system splenocytes co-cultured with Myc-inhibited B16 tumor cells. The assay can be described thus: ProcartaPlex multiplex immunoassay of splenocyte/B16 co-cultures. Format: cell-based, mouse. As to the method:
To further investigate the influence of tumor secreted apoE on immune cell function, immunogenic B16 tumor cells (B16 cells treated with Myc inhibitors (0.25 μM BET+0.25 μM JQ1 for 4 days) were irradiated at 60 Gray and co-cultured with naïve C57/BL6 splenocytes in the presence of either apoE mimetic COG133 at 0.3, 3 and 9 μM or anti-APOE blocking antibody at 1, 10 and 30 μg/ml concentrations. Prior work has shown the immunogenic effect of treating cancer cells with Myc inhibitors and irradiation. IFNγ production was quantified by ELISA at 48 h. Splenocytes produced high levels of IFNγ when co-cultured with Myc-inhibited immunogenic B16 cells as shown in FIGS. 3A-3C. Exposure of these cells to apoE mimetic COG133 repressed IFNγ production (6-fold reduction) (FIG. 3A), while the presence of Anti-APOE antibody enhanced IFNγ production (3-fold increase) (FIG. 3B). We also tested IFNγ production from vaccinated splenocytes following co-culture with treated and untreated B16 cells in the presence of COG 133. To obtain vaccinated splenocytes, 10^4 WT B16 tumor cells and 100 μg/ml anti-CTLA4 antibody were administered to C57BL/6 mice on day 0, and splenocytes were collected at day 7 after tumor cell inoculation. Compared with naïve splenocytes, vaccinated splenocytes produced dramatically greater level of IFNγ, especially when they were co-cultured with Myc inhibited B16 tumor cells. […] In addition to IFNγ, we also quantified other cytokine/chemokines using ProcartaPlex multiplex immunoassay. […] Within these 14 cytokines, four of them including IFN[…], IL6, IL18 and RANTES (CCL5) were suppressed after exposure to apoE peptide mimetic COG133 in a dose dependent manner (FIG. 17).
Cell culture supernatant was collected after centrifuge at 1,200 rpm for 10 min at 4° C. The concentrations of the following immune molecules were determined using the mouse Cytokine & Chemokine 36-plex ProcartaPlex Panel, a magnetic bead-based multiplex immunoassay (Thermo Scientific) following our previous protocol(19). Briefly, cell culture supernatant samples were mixed with antibody-linked polystyrene beads on a 96-well plate and incubated at room temperature (RT) for 2 h on an orbital shaker at 500 rpm. After washing, plates were incubated with biotinylated detection antibody for 30 min at RT. Plates were then washed twice and then labeled beads were resuspended in streptavidin-PE. Each sample was measured in duplicate along with standards (8-point dilutions) and the buffer control. Plates were read using a Luminex Bio-plex 200 system (Bio-Rad Corp.) for quantitative analysis.

Regarding “COG133: a fragment of apoE peptide, which competes with the apoE holoprotein for binding the LDL receptors and acts as an apoE mimetic”, where the note is “co-culture with Myc-inhibited B16 cells 48 hr, multiplex immunoassay (FIG. 18)”, the “IL-13, IL-4, IL22, IL18, MCP-1, RANTES and Gro-α, WT vaccinated splenocytes” value is recorded as “suppression”. Moreover, the “production of IFNγ, IL-6 and IL-18, naïve splenocytes” value (co-cultures with naïve splenocytes, 48 hr, multiplex ELISA (FIG. 17)) is on record as “suppressive effect”. Further, the “production of IFNγ, IL-6 and IL-18, vaccinated splenocytes” value (co-cultures with vaccinated splenocytes, 48 hr, multiplex ELISA (FIG. 17)) was “diminished in vaccinated splenocytes is still observed”. For the same substance, the “IFNγ, IL6, IL18 and RANTES (CCL5) production” value (splenocytes + Myc-inhibited B16 cells, multiplex immunoassay, dose dependent manner) is “suppressed”.
